{"source": "patent US20160089319A1", "about": "“ACTIVES FOR STIMULATING DIFFERENTIATION OF KERATINOCYTES TO LIGHTEN HYPERPIGMENTED SKIN” (ELC MANAGEMENT LLC, priority 2014, published 2016)", "system": "basement membrane in hyperpigmented lesions", "experiment": "Further studies by the inventors on morphology of the basement membrane in hyperpigmented lesions (results not shown)", "format": "in vivo", "conditions": "formulation containing the substance but no Phytofix"}
{"substance": "sodium ribonucleic acid", "values": [{"measurement": "improvement of the morphology of the basement membrane", "value": "no improvement of the morphology of the basement membrane"}]}
